Common to all, as to format: cell-based, human
The subject of one experiment is pERK, Calu6 cells. Description: Phospho-ERK inhibition, AlphaLISA p-ERK 1/2, Calu-6. The settings on record: Table D-2; for IC50: Calu6 (KRAS Q61K); for pERK value in parentheses, % inhibition (Ymin): Calu6, lowest point of IC50 curve. The method, then: (§1) All cancer cell lines (A375, A101D, A2058, RKO, HT29 SK-MEL 30, IPC298, HepG2, HCT-116, Lovo, SW620, SW480, NCI-H358, NCI-H2122, Calu-6, NCIH2087, NCIH1755, NCIH1666 and Mewo) were obtained from ATCC and cultured in RPM1-1640 medium (Gibco) supplemented with 5% heat inactivated fetal bovine serum (FBS, Wisent) at 37° C. under 5% CO2. Cells were maintained in T175 flasks (Greiner). They were passaged by removing the culture medium, washing once in 10 mL of room temperature Phosphate Buffered Saline (PBS; Wisent) and incubating at 37° C. with 2 mL of 0.05% Trypsin (Thermo-Fisher). Trypsin was then inactivated by adding complete growth medium and the cells were then replated in a T175 culture dish at the appropriate dilution. All cell lines were routinely tested for mycoplasma contamination. Tissue type and mutational status of each cell line can be found in Table B.
(§2) (c) Measurement of Phospho-ERK Inhibition in Cultivated Human Cancer Cell Lines by the AlphaLISA® SureFire® Ultra™ p-ERK 1/2 (Thr2O2/Tyr204)
(§3) AlphaLISA® SureFire® Ultra™ p-ERK 1/2 (Thr202/Tyr204) analysis was conducted on cells plated in 100 μL of complete RPMI-1640 growth medium in 96-well flat-bottomed transparent dishes (Costar) at a density indicated in Table C. Cells were maintained overnight at 37° C. under 5% CO2 before treatment with compounds' dilution series for one hour. The cell density in cells/cm^2 corresponds to cell number divided by the area of one well of a 96-well plate (0.143 cm^2).
(§4) In a dilution series 100 μL/well of test substance dilution prepared in complete RPMI-1640 growth media was added to the cells. The dilution series is selected so that ten concentrations cover a range from 10 μM to 0.33 nM. If necessary, the initial concentration of 10 μM is increased to 100 μM or lowered to 1 μM (as in the case of A375 and H1666 cells, which are generally more sensitive to the compounds) and further dilution is carried out accordingly. The final concentration of DMSO in the assay is set at 0.5%.
(§5) After treatment, media was removed, and cells were lysed in 50 μL of 1× AlphaScreen Ultra Lysis Buffer (Perkin Elmer). The AlphaLISA® SureFire® Ultra™ p-ERK 1/2 (Thr202/Tyr204) (PerkinElmer) reactions were performed with 5 μL of cell lysate according to the manufacturer's specifications in 384-well proxyplates (Perkin Elmer) followed by overnight incubation of the reactions at room temperature in a humidified chamber. After completion of the reactions, the signals were recorded on an EnVision plate reader (Perkin Elmer) using built in AlphaLISA® settings.
(§6) The effect of each compound dilution on the pERK signal was expressed in % inhibition and calculated as follows. An internal 100% inhibition control (1 μM trametinib, cat. No. HY-10999; MedChem Express; CAS No. 871700-17-3) was included in each plate and used as a measure of pERK background. First, the value obtained for trametinib was subtracted from each data point. The average of DMSO (vehicle) controls (set as 0% inhibition) was established and used to calculate % inhibition:
(§7) The ability of each compound to inhibit pERK signal was expressed as an IC50 value obtained by plotting the inhibition values for each data point of a dilution series and fitting the obtained curves using a log(agonist) versus response—variable slope (four parameters) function using GraphPadPrism (V7.0) or Dotmatics Screening Ultra platform.
(§8) When present, paradoxical pERK induction is inferred from the negative % inhibition values observed in the pERK IC50 curves of a compound.
On the technique in general: In Alpha technology, singlet oxygen from a donor bead excites a nearby acceptor bead.

A further experiment has as its system pERK, NCI-H2122 cells. In words: Phospho-ERK inhibition, AlphaLISA p-ERK 1/2, NCI-H2122. The following applies: Table D-2; for IC50: NCI-H2122 (KRAS-G12C); for pERK value in parentheses, % inhibition (Ymin): NCI-H2122, lowest point of IC50 curve. Here is the method:
as §1, §2, §3, §4, §5, §6, §7, §8

The next experiment has as its system pERK, NCIH2087 cells. Description: Phospho-ERK inhibition, AlphaLISA p-ERK 1/2, NCIH2087. The following applies: Table D-2; for IC50: NCIH2087 (BRAF L597V; KRAS Q61K); for pERK value in parentheses, % inhibition (Ymin): NCIH2087, lowest point of IC50 curve. The method, then:
as §1, §2, §3, §4, §5, §6, §7, §8

The next experiment deals with IPC298 cells. In words: Proliferation inhibition, CellTiter-Glo, IPC298. The following applies: Table D-1, IPC298 (NRAS-Q61L), 3 days, read-out: Prolif. (proliferation EC50). The method, then: as §1
CellTiter-Glo® viability analysis was conducted on cells plated in 100 μL of complete RPMI-1640 growth medium in 96-well flat-bottomed white opaque plates (Greiner or Croning) at a density indicated in Table E (for each CCL, number of cells plated per well of a 96-well plate to perform the CellTiter-Glo® cell viability assay). The cell density in cells/cm^2 would correspond to cell number divided by the area of one well of a 96-well plate (0.32 cm^2). […]
After 3 days of incubation, the growth media were removed by aspiration and 60 μL of diluted CellTiter-Glo® reagent (10 μL CellTiter-Glo® reagent+50 μL of PBS) was added to each well. […] Luminescence signals were then acquired on a Synergy Neo2 plate reader (Biotek).
The effect of each compound dilution on the proliferation of cancer cell lines was expressed in % inhibition and calculated as follows. […]
The ability of each compound to inhibit proliferation was expressed as a EC50 value obtained by plotting the effect values for each data point of a dilution series and fitting the obtained curves using a log(agonist) versus response—variable slope (four parameters) function using GraphPadPrism (V7.0) or Dotmatics Screening Ultra platform.
(ATP-based viability assays read luminescence as a measure of living cells.)

The subject of a further experiment is pERK, NCI-H358 cells. Description: Phospho-ERK inhibition, AlphaLISA p-ERK 1/2, NCI-H358. The settings on record: Table D-2; for IC50: NCI-H358 (KRAS-G12C); for pERK value in parentheses, % inhibition (Ymin): NCI-H358, lowest point of IC50 curve. The method, then:
as §1, §2, §3, §4, §5, §6, §7, §8

The structures appear in SMILES notation. Like-named read-outs stand apart in the source and are kept apart here.

We go through three compounds from US20260137697A1, “THIAZOLO[5,4-D]PYRIMIDINE COMPOUNDS, COMPOSITIONS COMPRISING THEM AND USES THEREOF” (University de Montreal, priority 2022, published 2026).

For orientation: IC50 means the concentration that inhibits the measured activity by half. Lower therefore signals greater potency.

As for `Cc1ccc2c(Nc3cccc(Cl)c3F)nccc2c1NC(=O)c1csc2c(N)ncnc12` [Belvarafenib, reference compound], the IC50 in the experiment with pERK, Calu6 cells (Homo sapiens, Calu-6) is 30 to 300 nM; with pERK, NCI-H2122 cells (Homo sapiens), 30 to 300 nM; with pERK, NCIH2087 cells (Homo sapiens, NCI-H2087), below 30 nM; in the experiment on pERK, NCI-H358 cells (Homo sapiens), 30 to 300 nM. For the same compound, the “pERK value in parentheses, % inhibition (Ymin)” value (“pERK value … % inhibition (Ymin)” for short) with pERK, Calu6 cells is “(−39) %”; in the experiment on pERK, NCI-H2122 cells, “(−9) %”; in the experiment with pERK, NCIH2087 cells, 6%; in the experiment with pERK, NCI-H358 cells it was “(−122) %”. In addition, the EC50 in the experiment on IPC298 cells (Homo sapiens, IPC-298, 72 h) was below 300 nM.
As for `Cc1c(F)cccc1S(=O)(=O)Nc1ccc(F)c(Nc2ncnc3sc(-n4cc(C(=O)N5C6CCC5CN(C)C6)c5ccccc54)nc23)c1F` [Example 44], the IC50 in the experiment with pERK, Calu6 cells was below 30 nM; with pERK, NCI-H2122 cells, 30 to 300 nM; in the experiment on pERK, NCIH2087 cells, below 30 nM; in the experiment on pERK, NCI-H358 cells it was 30 to 300 nM. The “pERK value … % inhibition (Ymin)” value with pERK, Calu6 cells is given as “(−12) %”; in the experiment with pERK, NCI-H2122 cells it was “(−11) %”; with pERK, NCIH2087 cells it was 4%; with pERK, NCI-H358 cells, “(1) %”. Further, in the experiment on IPC298 cells, the EC50 was below 300 nM.
Take `N#CC1(c2cccc3c2ncn3-c2nc3c(Nc4c(F)ccc(NS(=O)(=O)c5cccc(Cl)c5Cl)c4F)ncnc3s2)CC1` [Example 122]: the IC50 was 30 to 300 nM in the experiment on pERK, Calu6 cells; 30 to 300 nM with pERK, NCI-H2122 cells; below 30 nM with pERK, NCIH2087 cells; 30 to 300 nM with pERK, NCI-H358 cells. The “pERK value … % inhibition (Ymin)” value with pERK, Calu6 cells is “(−8) %”; in the experiment on pERK, NCI-H2122 cells it was “(27) %”; with pERK, NCIH2087 cells, 4%; in the experiment on pERK, NCI-H358 cells, “(−3) %”. Besides, in the experiment on IPC298 cells, the EC50 was below 300 nM.
